The text below walks through data of PubChem BioAssay AID264 (DTP/NCI, 2004).

Molecules are shown by their SMILES. Inconclusive results are not listed.

The test system of this experiment is nude mice, LX-1 lung xenograft intrarenal, tumor weight T/C. Put plainly: NCI In Vivo Anticancer Drug Screen. Data for tumor model Human Lung LX-1 Xenograft (intrarenal inoculation) in NU/NU Swiss (nude) mice. The following applies: endpoint: mean tumor weight change, higher = larger tumour. In outline:
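Tumor-bearing mice receive test compound or vehicle; tumor size is then measured in each group. The treated value is divided by the vehicle value to give T/C.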
(In general: Xenograft models place foreign cells or tissue in a host animal.)

The mark [1] stands for this setting: dose: 150.0 mg/kg/injection, schedule: Q04DX003 (sc), vehicle: Klucel (hydroxypropylcellulose) (HPC).
The mark [2] stands for this setting: dose: 50.0 mg/kg/injection, schedule: Q01DX010 (sc), vehicle: saline with Tween-80.
Setting [3] is: dose: 100.0 mg/kg/injection, schedule: Q01DX010 (sc), vehicle: saline with Tween-80.
Setting [4] is: dose: 200.0 mg/kg/injection, schedule: Q01DX010 (sc), vehicle: saline with Tween-80.
[5] abbreviates: dose: 75.0 mg/kg/injection, schedule: Q04DX003 (sc), vehicle: saline with Tween-80.
The mark [6] stands for this setting: dose: 150.0 mg/kg/injection, schedule: Q04DX003 (sc), vehicle: saline with Tween-80.
Setting [7] is: dose: 300.0 mg/kg/injection, schedule: Q04DX003 (sc), vehicle: saline with Tween-80.
Setting [8] is: dose: 25.0 mg/kg/injection, schedule: Q01DX010 (sc), vehicle: saline with Tween-80.
Where [9] appears, read: dose: 37.5 mg/kg/injection, schedule: Q04DX003 (sc), vehicle: saline with Tween-80.
Where [10] appears, read: dose: 18.75 mg/kg/injection, schedule: Q04DX003 (sc), vehicle: suspension in saline.

With `Nc1ncnc2c1nnn2C1OC(CO)C(O)C1O` (stereo unspecified), the T/C was 102 % of control (dose: 18.75 mg/kg/injection, schedule: Q04DX003 (sc), vehicle: Klucel (hydroxypropylcellulose) (HPC)); 96 % of control (dose: 37.5 mg/kg/injection, schedule: Q04DX003 (sc), vehicle: Klucel (hydroxypropylcellulose) (HPC)); 103 % of control (dose: 75.0 mg/kg/injection, schedule: Q04DX003 (sc), vehicle: Klucel (hydroxypropylcellulose) (HPC)); 80 % of control under setting [1].
Regarding `C1=CCOCOC1`, the T/C was 83 % of control under setting [2]; 105 % of control under setting [3]; 81 % of control under setting [4]; 46 % of control (dose: 400.0 mg/kg/injection, schedule: Q01DX010 (sc), vehicle: saline with Tween-80).
With `Cc1cc(=O)n2c3c(c4c(cc13)c(CN(C)C)cc(=O)n4C)OC2`, the T/C is 59 % of control under setting [5], 89 % of control under setting [6] and 55 % of control under setting [7].
Regarding `COC1/C=C\C=C(/C)C(=O)NC2=CC(=O)C=C(C2=O)C(OC)C(C)CC(OC)C(OC)C(C)/C=C(/C)C1OC(N)=O` (stereo unspecified), the T/C (dose: 4.5 mg/kg/injection, schedule: Q04DX003 (sc), vehicle: Klucel (hydroxypropylcellulose) (HPC)) is 82 % of control.
As to `Nc1n[n+](-c2ccccc2)no1`, the T/C is 87 % of control (dose: 37.5 mg/kg/injection, schedule: Q04DX003 (sc), vehicle: water) and 89 % of control (dose: 75.0 mg/kg/injection, schedule: Q04DX003 (sc), vehicle: water).
As to `C[n+]1cccc(NC(=O)c2ccc(NC(=O)C34CCC(C(=O)Nc5ccc(C(=O)Nc6ccc[n+](C)c6)cc5)(CC3)CC4)cc2)c1`, the T/C runs as follows: (dose: 12.5 mg/kg/injection, schedule: Q04DX003 (sc), vehicle: saline with Tween-80) 103 % of control; (dose: 25.0 mg/kg/injection, schedule: Q04DX003 (sc), vehicle: saline with Tween-80) 76 % of control; (dose: 50.0 mg/kg/injection, schedule: Q04DX003 (sc), vehicle: saline with Tween-80) 53 % of control.
With `O=C[C@@H](CO)O[C@H](C=O)n1cnc2c(=O)[nH]cnc21`, the T/C runs as follows: (dose: 100.0 mg/kg/injection, schedule: Q04DX003 (sc), vehicle: suspension in saline) 71 % of control; (dose: 200.0 mg/kg/injection, schedule: Q04DX003 (sc), vehicle: suspension in saline) 57 % of control; (dose: 400.0 mg/kg/injection, schedule: Q04DX003 (sc), vehicle: suspension in saline) 59 % of control; (dose: 800.0 mg/kg/injection, schedule: Q04DX003 (sc), vehicle: suspension in saline) 54 % of control.
On to `Cc1nn(CCO)c(C)c1N=[N+]([O-])c1c(C)nn(CCO)c1C`, for which the T/C is, setting by setting: under setting [1], 99 % of control; (dose: 300.0 mg/kg/injection, schedule: Q04DX003 (sc), vehicle: Klucel (hydroxypropylcellulose) (HPC)) 105 % of control; (dose: 600.0 mg/kg/injection, schedule: Q04DX003 (sc), vehicle: Klucel (hydroxypropylcellulose) (HPC)) 121 % of control; (dose: 1200.0 mg/kg/injection, schedule: Q04DX003 (sc), vehicle: Klucel (hydroxypropylcellulose) (HPC)) 103 % of control.
Turning to `CC(=O)N(C)C`, the T/C (dose: 450.0 mg/kg/injection, schedule: Q01DX010 (sc), vehicle: saline) is 70 % of control.
Turning to `CNC(=O)OCc1c(COC(=O)NC)c(-c2ccccc2)n(C)c1-c1ccccc1`, the T/C runs as follows: (dose: 50.0 mg/kg/injection, schedule: Q04DX003 (sc), vehicle: distilled water + Tween-80) 88 % of control; (dose: 100.0 mg/kg/injection, schedule: Q04DX003 (sc), vehicle: distilled water + Tween-80) 182 % of control; (dose: 200.0 mg/kg/injection, schedule: Q04DX003 (sc), vehicle: distilled water + Tween-80) 50 % of control; (dose: 800.0 mg/kg/injection, schedule: Q04DX003 (sc), vehicle: distilled water + Tween-80) 52 % of control; (dose: 1600.0 mg/kg/injection, schedule: Q04DX003 (sc), vehicle: distilled water + Tween-80) 57 % of control.
In the case of `CC(=O)Nc1ccc(C(=O)C=O)cc1`, the T/C is, setting by setting: under setting [8], 69 % of control; under setting [2], 103 % of control; under setting [3], 35 % of control; under setting [4], 45 % of control.
Turning to `C=C1C(C)C2C(Cc3ccccc3)NC(=O)C23C(OC(C)=O)/C=C/C(C)(O)CC(C)C/C=C/C3C1O` (stereo unspecified), the T/C was 112 % of control (dose: 6.25 mg/kg/injection, schedule: Q04DX003 (sc), vehicle: Klucel (hydroxypropylcellulose) (HPC)) and 112 % of control (dose: 12.5 mg/kg/injection, schedule: Q04DX003 (sc), vehicle: Klucel (hydroxypropylcellulose) (HPC)).
As for `NC(=O)/C=C/c1c[nH]c2nccnc12`, for the setting “dose: 50.0 mg/kg/injection, schedule: Q04DX003 (sc), vehicle: water”, the T/C was 86 % of control.
As to `O=C(O)C1CC1.[Ag]`, the T/C under setting [9] was 63 % of control, the T/C under setting [5] is 57 % of control, the T/C under setting [6] is 62 % of control and the T/C under setting [7] was 54 % of control.
In the case of `CC(C)NCC(O)COc1ccc(O)c(O)c1` (stereo unspecified), the T/C (dose: 100.0 mg/kg/injection, schedule: Q04DX003 (sc), vehicle: saline) is 104 % of control; the T/C (dose: 200.0 mg/kg/injection, schedule: Q04DX003 (sc), vehicle: saline) was 84 % of control; the T/C (dose: 400.0 mg/kg/injection, schedule: Q04DX003 (sc), vehicle: saline) was 114 % of control; the T/C (dose: 800.0 mg/kg/injection, schedule: Q04DX003 (sc), vehicle: saline) is 54 % of control.
On to `O=C(Nc1nncs1)c1cccs1`, for which the T/C under setting [7] was 119 % of control; the T/C (dose: 600.0 mg/kg/injection, schedule: Q04DX003 (sc), vehicle: saline with Tween-80) was 85 % of control; the T/C (dose: 1200.0 mg/kg/injection, schedule: Q04DX003 (sc), vehicle: saline with Tween-80) was 120 % of control.
Regarding `O=CC(O)C(O)C(O)C(O)C(=O)O.[NH-]C1CCCCC1[NH-].[Pt+2]` (stereo unspecified), the T/C (dose: 9.38 mg/kg/injection, schedule: Q04DX003 (sc), vehicle: suspension in saline) was 39 % of control and the T/C under setting [10] was 46 % of control.
Consider `COC(=O)C(N)Cc1ccc(O)c(O)c1` (stereo unspecified), for which the T/C runs as follows: (dose: 300.0 mg/kg/injection, schedule: Q04DX003 (sc), vehicle: saline) 118 % of control; (dose: 600.0 mg/kg/injection, schedule: Q04DX003 (sc), vehicle: saline) 108 % of control; (dose: 1200.0 mg/kg/injection, schedule: Q04DX003 (sc), vehicle: saline) 106 % of control; (dose: 2400.0 mg/kg/injection, schedule: Q04DX003 (sc), vehicle: saline) 108 % of control.
For `COc1cc([C@@H]2c3cc4c(cc3[C@@H](OC3OC5COC(C)OC5C(O)C3O)[C@H]3COC(=O)[C@H]23)OCO4)cc(OC)c1O` (stereo partly specified), the T/C (dose: 2.0 mg/kg/injection, schedule: Q01DX010 (sc), vehicle: saline) was 153 % of control; the T/C (dose: 4.0 mg/kg/injection, schedule: Q01DX010 (sc), vehicle: saline) was 80 % of control; the T/C (dose: 8.0 mg/kg/injection, schedule: Q01DX010 (sc), vehicle: saline) was 85 % of control; the T/C (dose: 16.0 mg/kg/injection, schedule: Q01DX010 (sc), vehicle: saline) is 31 % of control.
Take `C=C1C(=O)O[C@@H]2[C@H](O)[C@@H](C)[C@@H]3C=CC(=O)[C@@]3(C)[C@H](OC(=O)C=C(C)C)[C@H]12`: the T/C was 95 % of control (dose: 9.38 mg/kg/injection, schedule: Q04DX003 (sc), vehicle: saline with Tween-80); 101 % of control (dose: 18.75 mg/kg/injection, schedule: Q04DX003 (sc), vehicle: saline with Tween-80); 100 % of control under setting [9].
With `NCCc1ccc(O)c(O)c1`, the T/C is, setting by setting: (dose: 200.0 mg/kg/injection, schedule: Q01DX010 (sc), vehicle: saline) 113 % of control; (dose: 400.0 mg/kg/injection, schedule: Q01DX010 (sc), vehicle: saline) 92 % of control; (dose: 800.0 mg/kg/injection, schedule: Q01DX010 (sc), vehicle: saline) 52 % of control.
In the case of `CN1CCN(Cc2nc3cccc4c3c([n+]2[O-])-c2ccccc2-4)CC1`, the T/C is, setting by setting: (dose: 12.5 mg/kg/injection, schedule: Q01DX010 (sc), vehicle: saline with Tween-80) 83 % of control; under setting [8], 161 % of control; under setting [2], 180 % of control.
In the case of `C(=N/NC1=NCCN1)/c1c2ccccc2c(/C=N\NC2=NCCN2)c2ccccc12`, the T/C by setting is: under setting [10], 117 % of control; (dose: 75.0 mg/kg/injection, schedule: Q04DX003 (sc), vehicle: suspension in saline) 72 % of control; (dose: 150.0 mg/kg/injection, schedule: Q04DX003 (sc), vehicle: suspension in saline) 49 % of control.
